Experimental findings from ChEMBL document CHEMBL1156373, “Sesquiterpenes from the Formosan stolonifer Tubipora musica” (2001) are described below.

Each structure is given as a SMILES string. Values after ≈ are worked out from the molar mass of the structure shown.

This experiment concerns P388. The experiment is described as follows: Cytotoxicity against mouse P388 cells. It counts as functional. To be noted: read-out: ED50 (the source's name).
Take `CC(=O)OCC1=CC(C)=C[C@@]2(C)C[C@]3(C[C@H]12)C(=O)O[C@H]1O[C@H]13` [SPIROTUBIPOLIDE]: the EC50 was 3.24 µg/mL (≈ 10.6 µM).

For the molecule `CC1=CC=C[C@@]2(C)C[C@@H]3OC(=O)C(C)=C3C[C@@H]12` [TUBIPOLIDE B], the EC50 was determined as 3.69 µg/mL (≈ 16 µM).

In the case of `CC(=O)OCC1=CC=C[C@@]2(C)C=C3OC(=O)C(C)=C3C[C@@H]12` [TUBIPOLIDE G], the EC50 was 4.01 µg/mL (≈ 14 µM).
